From patent US9056833B2, “Crystalline phases of 2′-{[2-(4-methoxy-phenyl)-acetylamino]-methyl}-biphenyl-2-carboxylic acid (2-pyridin-3-yl-ethyl)-amide” (SANOFI-AVENTIS DEUTSCHLAND GMBH, priority 2009, dated 2015)

Key:
Assay type in all cases: physicochemical
[1] = Thermodynamic stability of the polymorphs as a function of temperature
[2] = Dynamic vapor sorption (DVS), moisture sorption/desorption isotherms; details: 25° C.
Method: Moisture sorption/desorption isotherms were recorded on a DVS-1from Surface Measurement Systems. […] The data were evaluated with the software DVSWin V. 2.15With samples of phase 1, 2, 3and 4of compound I the following water uptake (in mass percent) as a function of the relative humidity was determined.

[3] = Maturation experiments (slurry conversion), relative stability of the polymorphs; details: investigated temperature range 0° C. to 80° C.
Method: By maturation experiments (slurry conversion) in the temperature region from 0° C. to 80° C. the relative stability of the polymorphs of compound I was investigated.
Maturation experiments (a) to (d) were performed under the specified conditions, starting from a 1:1mixture of polymorphs 1and 4. • (a) The phase mixture was suspended in ethanol. After stirring the suspension for two days at 60° C., the solid was quickly isolated by vacuum filtration. • (b) The phase mixture was suspended in butyl acetate. After stirring the suspension for two days at 60° C., the solid was quickly isolated by vacuum filtration. • (c) The phase mixture was suspended in 1-pentanol. After stirring the suspension for four hours at 80° C., the solid was quickly isolated by vacuum filtration. • (d) The phase mixture was suspended in 1-octanol. After stirring the suspension for four hours at 80° C., the solid was quickly isolated by vacuum filtration.
Maturation experiments (e) to (p) were performed by stirring the suspension under the specified conditions and isolating the solid by vacuum filtration, starting from polymorph 4. • (e) Maturation of 0.208g of compound I in 1.3ml of water/methanol (1:1) was performed at room temperature for four weeks. […]

[4] = Solubility compared to other polymorphs
[5] = Stability of chloroform solvate outside the mother liquor
[6] = Temperature-resolved X-ray powder diffraction, DSC and TGA of toluene solvate; details: on loss of solvent
Method: All X-ray powder diffraction was performed with Stoe Stadi-P transmission diffractometers using CuKα1radiation. For room temperature powder diffraction, linear position sensitive detectors were used, while for temperature-resolved XRPD image plate position sensitive detectors (IP-PSDs) were used. Unless stated otherwise, X-ray powder diffraction was performed at room temperature. Dry samples were investigated in a flat preparation whereas suspensions were investigated in quartz glass capillaries. […] The 2θ (2theta) angles in ° (degree) and the relative intensities of characteristic reflections are specified above, wherein the relative intensity of a reflection is designated as “strong” if it is more than 75% of the intensity of the most intense reflection or it is the most intense reflection itself, and as “medium” if it is between 20% and 75% of the intensity of the most intense reflection.
All DSC measurements were performed with a Mettler DSC822e (module DSC822e/700/109/414935/0025). If not indicated differently, 40μl Al crucibles with sealed lid and hole were used. All measurements were carried out in a nitrogen gas flow of 50mL/minute. The heating rate was 10° C./minute unless indicated otherwise. Temperature and heat flow were calibrated via the melting peak of an indium reference. The measured data were evaluated with the software STARe V6.1.

In the case of `COc1ccc(CC(=O)NCc2ccccc2-c2ccccc2C(=O)NCCc2cccnc2)cc1` [Polymorph 1, 2′-{[2-(4-methoxy-phenyl)-acetylamino]-methyl}-biphenyl-2-carboxylic acid (2-pyridin-3-yl-ethyl)-amide], the “temperature range in which the polymorph is thermodynamically stable” value [1] is reported as “below 90 °C”, the “water uptake (in mass percent)” value ([2]; relative humidity 20%, listed as Phase 1) is reported as 0.00% and the “water uptake (in mass percent)” value ([2]; relative humidity 40%, listed as Phase 1) is reported as 0.01%. The “water uptake (in mass percent)” value ([2]; relative humidity 60%, listed as Phase 1) was 0.01%, the “water uptake (in mass percent)” value ([2]; relative humidity 80%, listed as Phase 1) was 1.36% and the “relative thermodynamic stability among the known polymorphs” value [3] was “thermodynamically most stable”.

With `COc1ccc(CC(=O)NCc2ccccc2-c2ccccc2C(=O)NCCc2cccnc2)cc1` [Polymorph 2, 2′-{[2-(4-methoxy-phenyl)-acetylamino]-methyl}-biphenyl-2-carboxylic acid (2-pyridin-3-yl-ethyl)-amide] the “thermodynamic stability (in words)” value [1] was “metastable at any temperature”, the “solubility compared to other polymorphs” value [4] was “higher solubility” and the “water uptake (in mass percent)” value ([2]; relative humidity 20%, listed as Phase 2) was 0.04%. The “water uptake (in mass percent)” value ([2]; relative humidity 40%, listed as Phase 2) was 0.05%, the “water uptake (in mass percent)” value ([2]; relative humidity 60%, listed as Phase 2) was 0.09% and the “water uptake (in mass percent)” value ([2]; relative humidity 80%, listed as Phase 2) was 1.79%.

In the case of `COc1ccc(CC(=O)NCc2ccccc2-c2ccccc2C(=O)NCCc2cccnc2)cc1` [chloroform solvate, 2′-{[2-(4-methoxy-phenyl)-acetylamino]-methyl}-biphenyl-2-carboxylic acid (2-pyridin-3-yl-ethyl)-amide], the “stability outside the mother liquor” value [5] is reported as “only moderately stable” and the “form obtained on transformation” value ([5]; outside the mother liquor) is reported as “starts to transform to polymorph 2”.

In the case of `COc1ccc(CC(=O)NCc2ccccc2-c2ccccc2C(=O)NCCc2cccnc2)cc1` [Polymorph 3, 2′-{[2-(4-methoxy-phenyl)-acetylamino]-methyl}-biphenyl-2-carboxylic acid (2-pyridin-3-yl-ethyl)-amide], the “thermodynamic stability (in words)” value [1] is reported as “only metastable below 90 °C”, the “water uptake (in mass percent)” value ([2]; relative humidity 20%, listed as Phase 3) is reported as 0.02% and the “water uptake (in mass percent)” value ([2]; relative humidity 40%, listed as Phase 3) is reported as 0.03%. For the same compound, the “water uptake (in mass percent)” value ([2]; relative humidity 60%, listed as Phase 3) was 0.06% and the “water uptake (in mass percent)” value ([2]; relative humidity 80%, listed as Phase 3) was 0.30%.

For `COc1ccc(CC(=O)NCc2ccccc2-c2ccccc2C(=O)NCCc2cccnc2)cc1` [toluene solvate, 2′-{[2-(4-methoxy-phenyl)-acetylamino]-methyl}-biphenyl-2-carboxylic acid (2-pyridin-3-yl-ethyl)-amide], the “form obtained on transformation” value [6] was “transforms to polymorph 4”.

With `COc1ccc(CC(=O)NCc2ccccc2-c2ccccc2C(=O)NCCc2cccnc2)cc1` [Polymorph 4, 2′-{[2-(4-methoxy-phenyl)-acetylamino]-methyl}-biphenyl-2-carboxylic acid (2-pyridin-3-yl-ethyl)-amide] the “temperature range in which the polymorph is thermodynamically stable” value [1] was “around 90 °C”, the “water uptake (in mass percent)” value ([2]; relative humidity 20%, listed as Phase 4) was 0.05% and the “water uptake (in mass percent)” value ([2]; relative humidity 40%, listed as Phase 4) was 0.02%. The “water uptake (in mass percent)” value ([2]; relative humidity 60%, listed as Phase 4) was 0.15% and the “water uptake (in mass percent)” value ([2]; relative humidity 80%, listed as Phase 4) was 1.80%.
